We go through 30 compounds from ChEMBL document CHEMBL1759974, “Discovery of triazine-benzimidazoles as selective inhibitors of mTOR” (Bioorg Med Chem Lett, 2011).

Test [1] deals with T1, Serine/threonine-protein kinase mTOR (Homo sapiens, UniProt P42345).
Description: Inhibition of mTOR in human U-87 cells assessed as inhibition of phosphorylation of AKT at S473
The target of test [2] is T1, Serine/threonine-protein kinase mTOR. This is another data set of the same source.
For test [3], the target named is Phosphatidylinositol 4,5-bisphosphate 3-kinase catalytic subunit alpha isoform (Homo sapiens, UniProt P42336).
Chain of Phosphatidylinositol 4,5-bisphosphate 3-kinase catalytic subunit alpha isoform (P42336 whole entry, canonical isoform): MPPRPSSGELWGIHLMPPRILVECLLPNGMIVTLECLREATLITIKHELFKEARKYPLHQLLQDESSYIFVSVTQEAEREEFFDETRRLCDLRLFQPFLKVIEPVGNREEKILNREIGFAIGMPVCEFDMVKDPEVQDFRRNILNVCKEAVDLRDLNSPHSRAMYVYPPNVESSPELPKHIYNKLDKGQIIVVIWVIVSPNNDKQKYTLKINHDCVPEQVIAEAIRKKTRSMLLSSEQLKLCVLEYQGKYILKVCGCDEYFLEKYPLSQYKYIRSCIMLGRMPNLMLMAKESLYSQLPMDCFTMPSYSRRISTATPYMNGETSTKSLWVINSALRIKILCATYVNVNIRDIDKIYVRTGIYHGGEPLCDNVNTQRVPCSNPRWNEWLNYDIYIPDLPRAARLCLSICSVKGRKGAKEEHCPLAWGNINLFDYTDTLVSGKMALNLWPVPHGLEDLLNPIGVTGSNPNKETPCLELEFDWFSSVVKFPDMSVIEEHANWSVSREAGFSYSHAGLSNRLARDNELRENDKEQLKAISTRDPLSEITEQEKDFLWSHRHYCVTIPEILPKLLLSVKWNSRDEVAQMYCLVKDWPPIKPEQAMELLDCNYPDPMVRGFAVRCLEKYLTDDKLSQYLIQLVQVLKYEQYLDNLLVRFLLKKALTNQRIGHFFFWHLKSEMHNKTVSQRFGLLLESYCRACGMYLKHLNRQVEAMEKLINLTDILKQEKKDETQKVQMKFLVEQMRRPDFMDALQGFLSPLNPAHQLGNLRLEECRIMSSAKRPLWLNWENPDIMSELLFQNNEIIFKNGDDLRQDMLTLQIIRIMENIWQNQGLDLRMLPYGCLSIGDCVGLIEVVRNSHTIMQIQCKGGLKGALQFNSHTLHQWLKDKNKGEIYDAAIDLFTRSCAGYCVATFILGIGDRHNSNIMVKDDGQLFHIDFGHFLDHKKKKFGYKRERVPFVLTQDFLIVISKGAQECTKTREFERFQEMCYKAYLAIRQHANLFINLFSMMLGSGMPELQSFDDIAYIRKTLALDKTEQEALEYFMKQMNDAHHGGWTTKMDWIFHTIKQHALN
Test [4] has as its target T1, Serine/threonine-protein kinase mTOR. The source holds these as a separate data set.
Test [5] concerns the target T2, Phosphatidylinositol 4,5-bisphosphate 3-kinase catalytic subunit delta isoform (Homo sapiens, UniProt O00329).
T2 sequence (O00329 whole entry): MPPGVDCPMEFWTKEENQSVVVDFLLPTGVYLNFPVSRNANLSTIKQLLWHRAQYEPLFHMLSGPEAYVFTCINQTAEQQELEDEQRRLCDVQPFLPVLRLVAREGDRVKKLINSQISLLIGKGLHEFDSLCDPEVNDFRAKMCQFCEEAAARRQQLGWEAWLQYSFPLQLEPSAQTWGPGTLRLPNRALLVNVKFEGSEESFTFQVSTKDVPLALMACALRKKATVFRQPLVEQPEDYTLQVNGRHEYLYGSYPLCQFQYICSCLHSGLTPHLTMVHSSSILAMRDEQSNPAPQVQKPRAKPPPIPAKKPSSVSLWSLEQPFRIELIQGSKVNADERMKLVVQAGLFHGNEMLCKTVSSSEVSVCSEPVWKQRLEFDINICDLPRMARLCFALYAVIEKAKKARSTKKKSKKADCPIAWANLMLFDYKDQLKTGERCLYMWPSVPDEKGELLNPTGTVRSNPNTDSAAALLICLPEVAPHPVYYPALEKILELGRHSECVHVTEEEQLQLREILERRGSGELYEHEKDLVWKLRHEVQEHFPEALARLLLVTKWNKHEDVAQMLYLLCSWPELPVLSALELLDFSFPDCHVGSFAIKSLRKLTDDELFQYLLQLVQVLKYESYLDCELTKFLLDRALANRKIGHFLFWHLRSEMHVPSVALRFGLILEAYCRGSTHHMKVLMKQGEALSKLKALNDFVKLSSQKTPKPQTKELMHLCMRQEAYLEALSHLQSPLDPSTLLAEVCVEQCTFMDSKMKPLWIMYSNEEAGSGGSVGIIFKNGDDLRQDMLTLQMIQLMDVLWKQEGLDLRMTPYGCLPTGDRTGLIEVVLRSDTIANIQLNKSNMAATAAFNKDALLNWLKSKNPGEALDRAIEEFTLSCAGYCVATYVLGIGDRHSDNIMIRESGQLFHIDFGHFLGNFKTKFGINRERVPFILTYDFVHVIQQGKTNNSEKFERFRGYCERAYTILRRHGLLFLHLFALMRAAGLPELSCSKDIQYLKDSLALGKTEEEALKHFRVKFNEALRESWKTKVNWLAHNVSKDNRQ

The target of test [6] is Phosphatidylinositol 4,5-bisphosphate 3-kinase catalytic subunit gamma isoform (Homo sapiens, UniProt P48736).
Chain of Phosphatidylinositol 4,5-bisphosphate 3-kinase catalytic subunit gamma isoform (P48736 whole entry, canonical isoform): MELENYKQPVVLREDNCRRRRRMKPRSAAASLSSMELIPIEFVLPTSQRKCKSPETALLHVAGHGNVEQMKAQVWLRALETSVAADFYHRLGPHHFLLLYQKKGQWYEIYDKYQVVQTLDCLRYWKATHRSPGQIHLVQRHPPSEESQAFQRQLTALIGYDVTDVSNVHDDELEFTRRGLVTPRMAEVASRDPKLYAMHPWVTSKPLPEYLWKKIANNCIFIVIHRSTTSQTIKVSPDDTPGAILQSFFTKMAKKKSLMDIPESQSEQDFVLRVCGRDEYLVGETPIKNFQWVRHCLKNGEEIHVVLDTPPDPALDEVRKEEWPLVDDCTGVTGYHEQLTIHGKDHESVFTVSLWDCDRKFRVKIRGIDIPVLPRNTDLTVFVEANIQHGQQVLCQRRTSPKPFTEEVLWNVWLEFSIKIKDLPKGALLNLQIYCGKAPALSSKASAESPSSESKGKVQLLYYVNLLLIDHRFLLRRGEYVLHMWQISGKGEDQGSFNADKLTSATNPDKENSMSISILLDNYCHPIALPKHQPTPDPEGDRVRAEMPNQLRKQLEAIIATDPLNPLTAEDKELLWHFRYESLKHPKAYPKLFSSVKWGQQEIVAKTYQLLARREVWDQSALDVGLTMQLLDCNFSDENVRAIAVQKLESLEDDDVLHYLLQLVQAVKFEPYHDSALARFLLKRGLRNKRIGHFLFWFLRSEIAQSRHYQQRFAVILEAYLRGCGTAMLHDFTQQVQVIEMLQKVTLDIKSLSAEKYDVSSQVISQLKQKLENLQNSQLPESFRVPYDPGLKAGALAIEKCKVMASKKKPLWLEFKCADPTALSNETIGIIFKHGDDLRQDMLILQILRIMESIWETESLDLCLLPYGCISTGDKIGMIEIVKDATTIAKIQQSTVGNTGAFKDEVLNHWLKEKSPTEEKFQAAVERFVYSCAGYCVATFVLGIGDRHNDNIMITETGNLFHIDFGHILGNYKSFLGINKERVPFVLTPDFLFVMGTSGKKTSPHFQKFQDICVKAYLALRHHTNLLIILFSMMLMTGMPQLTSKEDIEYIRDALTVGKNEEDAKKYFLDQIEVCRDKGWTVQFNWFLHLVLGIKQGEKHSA
Test [7] addresses Phosphatidylinositol 4,5-bisphosphate 3-kinase catalytic subunit beta isoform (Homo sapiens, UniProt P42338).

Chain of Phosphatidylinositol 4,5-bisphosphate 3-kinase catalytic subunit beta isoform (P42338 whole entry, canonical isoform): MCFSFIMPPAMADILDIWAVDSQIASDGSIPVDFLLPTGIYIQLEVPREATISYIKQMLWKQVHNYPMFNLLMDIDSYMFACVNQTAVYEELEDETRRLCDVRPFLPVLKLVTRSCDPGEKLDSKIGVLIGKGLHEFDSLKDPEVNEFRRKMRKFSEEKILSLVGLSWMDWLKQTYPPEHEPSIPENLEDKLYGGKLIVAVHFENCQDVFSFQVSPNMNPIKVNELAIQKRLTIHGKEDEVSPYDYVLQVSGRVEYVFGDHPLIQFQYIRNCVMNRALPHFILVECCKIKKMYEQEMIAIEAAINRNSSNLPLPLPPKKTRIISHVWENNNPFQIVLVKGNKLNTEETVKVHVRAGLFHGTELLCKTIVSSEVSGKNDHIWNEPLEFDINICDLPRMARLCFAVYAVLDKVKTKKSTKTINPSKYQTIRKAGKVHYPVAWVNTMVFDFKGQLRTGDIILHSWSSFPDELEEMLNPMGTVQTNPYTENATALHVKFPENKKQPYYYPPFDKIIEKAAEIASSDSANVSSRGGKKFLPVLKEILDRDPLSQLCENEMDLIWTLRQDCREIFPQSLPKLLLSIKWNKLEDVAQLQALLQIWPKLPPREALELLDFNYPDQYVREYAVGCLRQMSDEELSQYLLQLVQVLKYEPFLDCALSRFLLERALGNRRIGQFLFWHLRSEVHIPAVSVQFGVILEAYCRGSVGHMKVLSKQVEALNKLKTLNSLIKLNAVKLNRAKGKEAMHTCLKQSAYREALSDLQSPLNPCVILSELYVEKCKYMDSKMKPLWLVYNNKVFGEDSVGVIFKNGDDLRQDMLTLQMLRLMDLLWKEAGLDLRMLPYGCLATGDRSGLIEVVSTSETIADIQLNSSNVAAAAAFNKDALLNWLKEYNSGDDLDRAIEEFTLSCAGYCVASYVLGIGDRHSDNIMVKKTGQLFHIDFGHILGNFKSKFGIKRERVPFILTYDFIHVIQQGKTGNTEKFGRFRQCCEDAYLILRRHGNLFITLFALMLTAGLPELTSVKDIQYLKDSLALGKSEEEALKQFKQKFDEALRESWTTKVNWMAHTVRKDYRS

In the case of `Nc1cc(-n2c(Nc3cccc(O)c3)nc3ccccc32)ncn1`, the IC50 was determined as 0.42 µM in test [1], 0.11 µM in test [2], 1 µM in test [3] and 3.5 µM in test [4].
For the compound `Cc1nc(N)nc(-n2c(Nc3ccccc3)nc3ccccc32)n1`, the concentration for half-maximal inhibition (IC50) is 0.19 µM in test [1]; 0.36 µM in test [5]; 0.42 µM in test [2]; 0.26 µM in test [3]; 0.47 µM in test [6]; over 25 µM in test [4]. The compound also came in with an IC50 in test [7] of 1 µM.
As to `CNC(=O)c1ccc(Nc2nc3ccccc3n2-c2nc(C)nc(N)n2)o1`, the IC50 in test [1] is 0.68 µM; in test [5] it was 0.14 µM; in test [2] it was 0.15 µM; in test [3], 0.52 µM; in test [6], 0.026 µM; in test [4] it was over 25 µM. Besides, in test [7], the IC50 was 1.8 µM.
With `Cc1nccc(-n2c(Nc3cccc(O)c3)nc3ccccc32)n1`, the half-inhibitory concentration (IC50) in test [1] worked out at 0.6 µM; in test [2] it was 0.37 µM; in test [3], 0.37 µM; in test [4], 8.9 µM.
As to `COc1nc(NCC#N)nc(-n2c(Nc3cccc(O)c3)nc3ccccc32)n1`, the IC50 in test [1] was 2.1 µM; in test [2], over 50 µM; in test [3], 0.52 µM; in test [4], 21.5 µM.
Turning to `Cc1nc(N)nc(-n2c(Nc3ccn(C)n3)nc3ccccc32)n1`, the IC50 in test [1] is 0.58 µM; in test [5], 4.6 µM; in test [2], 0.27 µM; in test [3], 6.2 µM; in test [6], 4.1 µM; in test [4], 5.3 µM. Further, half-maximal inhibition in test [7] (IC50) required 28.8 µM.
Take `CC(=O)Nc1cccc(Nc2nc3ccccc3n2-c2nc(C)nc(N)n2)c1`: the IC50 was determined as 0.12 µM in test [1]; 0.89 µM in test [5]; 0.29 µM in test [2]; 0.63 µM in test [3]; 0.11 µM in test [6]; 1.5 µM in test [4]. The same compound came in with a 50% inhibitory concentration (IC50) in test [7] of 1.4 µM.
On to `Oc1cccc(Nc2nc3ccccc3n2-c2ncnc(NCc3ccccn3)n2)c1`, for which the half-inhibitory concentration (IC50) in test [1] is 2.4 µM; in test [2], 21 µM; in test [3], 3.6 µM; in test [4] it was over 25 µM.
As for `Oc1cccc(Nc2nc3ccccc3n2-c2ncncn2)c1`, the IC50 is 1.6 µM in test [1], 3 µM in test [2], 2 µM in test [3] and over 25 µM in test [4].
As to `CCc1nc(N)nc(-n2c(Nc3cccc(O)c3)nc3ccccc32)n1`, the IC50 in test [1] was determined as 0.41 µM; in test [2] it was 0.39 µM; in test [3] it was 0.34 µM; in test [4], 6.3 µM.
`C#CCNc1nc(C)nc(-n2c(Nc3ccn[nH]3)nc3ccccc32)n1`: the IC50 came out at 0.15 µM in test [1]; 4.6 µM in test [5]; 0.08 µM in test [2]; 4 µM in test [3]; 3.7 µM in test [6]; 1.4 µM in test [4]. The midpoint of inhibition in test [7], the IC50, lay at 3.7 µM.
As for `CC(=O)Nc1ccc(Nc2nc3ccccc3n2-c2nc(C)nc(N)n2)cc1`, the half-maximal inhibitory concentration (IC50) in test [1] was found to be 0.18 µM; in test [5] it was 0.071 µM; in test [2], 0.013 µM; in test [3] it was 0.023 µM; in test [6], 0.02 µM; in test [4], 0.34 µM. The same compound had a concentration for half-maximal inhibition (IC50) in test [7] of 0.41 µM.
For `Oc1cccc(Nc2nc3ccccc3n2-c2ncnc(Nc3ccccc3)n2)c1`, the IC50 in test [1] was 0.87 µM; in test [2] it was 2.3 µM; in test [3] it was 0.72 µM; in test [4], over 25 µM.
Taken in the same sequence, the figures for `COc1ncnc(-n2c(Nc3cccc(O)c3)nc3ccccc32)n1` were 1.9 µM, over 50 µM, 1.7 µM and over 25 µM.
Consider `Cc1nc(N)nc(-n2c(Nc3ccc4cn[nH]c4c3)nc3ccccc32)n1`, for which the 50% inhibitory concentration (IC50) in test [1] came to 0.12 µM; in test [5] it was 0.32 µM; in test [2], 0.027 µM; in test [3], 0.2 µM; in test [6], 0.2 µM; in test [4], 1.5 µM. Moreover, in test [7], the IC50 stood at 0.63 µM.
`Cc1nc(N)nc(-n2c(Nc3cn[nH]c3)nc3ccccc32)n1`: the IC50 in test [1] amounted to 0.18 µM; in test [5] it was 0.69 µM; in test [2], 0.19 µM; in test [3], 0.46 µM; in test [6], 0.61 µM; in test [4], 5.3 µM. This compound also registered a 50% inhibitory concentration (IC50) in test [7] of 1 µM.
Take `Cc1nc(N)nc(-n2c(Nc3cc(O)cc(O)c3)nc3ccccc32)n1`: the IC50 is 0.005 µM in test [1]; 0.0004 µM in test [5]; 0.0002 µM in test [2]; 0.0006 µM in test [3]; 0.005 µM in test [6]; 0.097 µM in test [4]. In test [7], this compound gave an IC50 of 0.0002 µM.
On to `Cc1nc(N)nc(-n2c(Nc3cccc(C(N)=O)c3)nc3ccccc32)n1`, for which the half-maximal inhibitory concentration (IC50) in test [1] amounted to 0.19 µM; in test [5], 0.04 µM; in test [2] it was 0.175 µM; in test [3] it was 0.29 µM; in test [6], 0.48 µM; in test [4], 3.9 µM. The half-maximal inhibitory concentration (IC50) in test [7] stood at 1.03 µM.
As for `Cc1nc(N)nc(-n2c(Nc3ccn(C(F)F)n3)nc3ccccc32)n1`, the half-inhibitory concentration (IC50) in test [1] came out at 0.77 µM; in test [5], 0.53 µM; in test [2], 0.34 µM; in test [3], 10.4 µM; in test [6] it was 0.86 µM; in test [4], 6.5 µM. In addition, 22.3 µM corresponded to half-maximal inhibition in test [7] (IC50).
Consider `Oc1cccc(Nc2nc3ccccc3n2-c2ncnc(NCC(F)(F)F)n2)c1`, for which the IC50 in test [1] was 3.2 µM; in test [2] it was over 50 µM; in test [3] it was 3.6 µM; in test [4], over 25 µM.
`Cc1nc(N)nc(-n2c(Nc3n[nH]c4ccccc34)nc3ccccc32)n1`: the IC50 was found to be 0.25 µM in test [1]; 0.27 µM in test [5]; 0.06 µM in test [2]; 0.96 µM in test [3]; 0.19 µM in test [6]; 4.2 µM in test [4]. In addition, in test [7], the half-inhibitory concentration (IC50) is 0.42 µM.
Consider `Cc1nc(N)nc(-n2c(NC3CCOCC3)nc3ccccc32)n1`, for which the IC50 in test [1] is 0.68 µM; in test [5], 0.71 µM; in test [2], 21.4 µM; in test [3] it was 1.6 µM; in test [6], 0.03 µM; in test [4] it was over 25 µM. This compound returned an IC50 in test [7] of 2.4 µM.
`Cc1nc(N)nc(-n2c(Nc3ccnn3C)nc3ccccc32)n1`: the IC50 in test [1] was 0.54 µM; in test [5] it was 3.3 µM; in test [2], over 50 µM; in test [3], 1.9 µM; in test [6], 2.3 µM; in test [4] it was over 25 µM. The compound also showed an IC50 in test [7] of 6.9 µM.
Consider `Cc1nc(N)cc(-n2c(Nc3cccc(O)c3)nc3ccccc32)n1`, for which the IC50 in test [1] came out at 0.043 µM; in test [2], 0.087 µM; in test [3], 0.042 µM; in test [4], 1.2 µM.
With `Nc1ncnc(-n2c(Nc3cccc(O)c3)nc3ccccc32)n1`, the IC50 came out at 0.034 µM in test [1], 0.021 µM in test [2], 0.13 µM in test [3] and 0.71 µM in test [4].
Taken in the same sequence, the figures for `Cc1nc(NCC#N)nc(-n2c(Nc3cccc(O)c3)nc3ccccc32)n1` were 0.017 µM, 0.008 µM, 0.032 µM and 0.38 µM.
As for `Cc1nc(N)nc(-n2c(Nc3nc[nH]n3)nc3ccccc32)n1`, the figures for the IC50 in test [1], in test [2] and in test [4] were 4.6 µM, 33.1 µM and over 25 µM, respectively.
In the case of `Cc1nc(N)nc(-n2c(Nc3ccc4cc[nH]c4c3)nc3ccccc32)n1`, the IC50 in test [1] was 0.14 µM; in test [5], 0.24 µM; in test [2], 0.028 µM; in test [3], 0.23 µM; in test [6], 0.34 µM; in test [4], 0.96 µM. Also, the IC50 in test [7] came out at 1 µM.
Consider `CNc1ncnc(-n2c(Nc3cccc(O)c3)nc3ccccc32)n1`, for which the IC50 in test [1] came out at 0.18 µM; in test [2] it was 0.25 µM; in test [3] it was 0.19 µM; in test [4], 2.9 µM.
For the compound `CCCc1nc(N)nc(-n2c(Nc3cccc(O)c3)nc3ccccc32)n1`, the IC50 in test [1] is 2.64 µM; in test [2] it was 4.7 µM; in test [3], 3.5 µM; in test [4], over 25 µM.

By IC50 is commonly meant the concentration that inhibits the measured activity by half.
